inhibition, logP and IC50 data for six compounds are collected here from ChEMBL document CHEMBL1140238, “Synthesis of selective SRPK-1 inhibitors: novel tricyclic quinoxaline derivatives” (Bioorg Med Chem Lett, 2005).

The target in data set [1] is Mitogen-activated protein kinase 8 (Homo sapiens) (UniProt P45983). Description: In vitro percent inhibition of c-Jun N-terminal kinase 1-alpha 1 at 10 uM concentration of compound dissolved in 100% DMSO using 5''-[gamma-33P]-triphosphate.
Data set [2] in a line: In vitro percent inhibition of Cyclin-dependent kinase 2-cyclin A at 10 uM concentration of compound dissolved in 100% DMSO using 5''-[gamma-33P]-triphosphate.
Data set [3] deals with Ribosomal protein S6 kinase (P70S6K) (Homo sapiens) (UniProt Q9UBS0+P23443). Description: In vitro percent inhibition of Ribosomal protein S6 kinase at 10 uM concentration of compound dissolved in 100% DMSO using 5''-[gamma-33P]-triphosphate. It counts as protein-complex assay.
In data set [4] the target is Glycogen synthase kinase-3 beta (Homo sapiens) (UniProt P49841). Kind of data set: In vitro percent inhibition of Glycogen synthase kinase 3 beta at 10 uM concentration of compound dissolved in 100% DMSO using 5''-[gamma-33P]-triphosphate.
Data set [5] has as its target RAF proto-oncogene serine/threonine-protein kinase (Homo sapiens) (UniProt P04049). Kind of data set: In vitro percent inhibition of RAF proto-oncogene serine/threonine-protein kinase at 10 uM concentration of compound dissolved in 100% DMSO using 5''-[gamma-33P]-triphosphate.
The target in data set [6] is Platelet-derived growth factor receptor beta (Homo sapiens) (UniProt P09619). Description: In vitro percent inhibition of Platelet-derived growth factor receptor, beta polypeptide at 10 uM concentration of compound dissolved in 100% DMSO using 5''-[gamma-33P]-triphosphate.
Data set [7] concerns the target Mast/stem cell growth factor receptor Kit (Homo sapiens) (UniProt P10721). Description: In vitro percent inhibition of v-kit Hardy-Zuckerman 4 feline sarcoma viral oncogene homolog at 10 uM concentration of compound dissolved in 100% DMSO using 5''-[gamma-33P]-triphosphate.
In data set [8] the target is Insulin receptor (Homo sapiens) (UniProt P06213). Description: In vitro percent inhibition of Insulin receptor at 10 uM concentration of compound dissolved in 100% DMSO using 5''-[gamma-33P]-triphosphate.
In data set [9] the target is Hepatocyte growth factor receptor (Homo sapiens) (UniProt P08581). Description: In vitro percent inhibition of Met proto-oncogene tyrosine kinase at 10 uM concentration of compound dissolved in 100% DMSO using 5''-[gamma-33P]-triphosphate.
Chain of Hepatocyte growth factor receptor (Homo sapiens) (P08581 whole entry): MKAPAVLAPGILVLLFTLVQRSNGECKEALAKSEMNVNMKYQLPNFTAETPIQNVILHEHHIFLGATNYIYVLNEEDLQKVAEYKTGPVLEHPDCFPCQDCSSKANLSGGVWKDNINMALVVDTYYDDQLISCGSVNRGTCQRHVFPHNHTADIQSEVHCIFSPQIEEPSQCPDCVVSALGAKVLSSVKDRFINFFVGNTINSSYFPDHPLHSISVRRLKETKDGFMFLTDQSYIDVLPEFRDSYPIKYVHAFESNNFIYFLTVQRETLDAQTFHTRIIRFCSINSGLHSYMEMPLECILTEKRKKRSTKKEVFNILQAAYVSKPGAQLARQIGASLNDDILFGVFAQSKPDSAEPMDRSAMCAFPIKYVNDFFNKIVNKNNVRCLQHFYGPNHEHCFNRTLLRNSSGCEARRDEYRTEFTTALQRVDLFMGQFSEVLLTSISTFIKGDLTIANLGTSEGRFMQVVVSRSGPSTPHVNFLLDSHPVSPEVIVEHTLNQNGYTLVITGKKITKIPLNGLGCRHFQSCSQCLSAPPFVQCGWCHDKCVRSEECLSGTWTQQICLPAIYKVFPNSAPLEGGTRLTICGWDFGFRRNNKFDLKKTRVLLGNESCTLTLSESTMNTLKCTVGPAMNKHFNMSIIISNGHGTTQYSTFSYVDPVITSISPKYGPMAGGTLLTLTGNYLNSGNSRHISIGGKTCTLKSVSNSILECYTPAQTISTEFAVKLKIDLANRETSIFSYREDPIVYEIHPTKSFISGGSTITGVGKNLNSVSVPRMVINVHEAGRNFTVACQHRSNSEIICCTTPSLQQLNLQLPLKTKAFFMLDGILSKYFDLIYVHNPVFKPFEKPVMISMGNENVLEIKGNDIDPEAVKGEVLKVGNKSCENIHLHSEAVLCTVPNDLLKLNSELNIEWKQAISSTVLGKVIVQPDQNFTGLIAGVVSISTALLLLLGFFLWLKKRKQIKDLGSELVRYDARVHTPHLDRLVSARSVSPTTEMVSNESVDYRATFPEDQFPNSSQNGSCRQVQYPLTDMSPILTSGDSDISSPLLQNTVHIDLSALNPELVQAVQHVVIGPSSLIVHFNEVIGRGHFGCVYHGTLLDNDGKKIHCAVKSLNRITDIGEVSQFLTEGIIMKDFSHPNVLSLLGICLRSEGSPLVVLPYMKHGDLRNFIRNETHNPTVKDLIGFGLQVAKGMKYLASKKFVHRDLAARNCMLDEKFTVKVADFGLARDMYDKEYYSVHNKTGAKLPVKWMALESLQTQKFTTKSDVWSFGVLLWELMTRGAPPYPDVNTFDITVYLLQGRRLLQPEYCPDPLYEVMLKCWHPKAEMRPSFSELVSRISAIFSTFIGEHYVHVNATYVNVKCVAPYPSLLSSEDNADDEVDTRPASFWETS
In data set [10] the target is Mitogen-activated protein kinase 3 (Homo sapiens) (UniProt P27361). Kind of data set: In vitro percent inhibition of Mitogen-activated protein kinase 3 at 10 uM concentration of compound dissolved in 100% DMSO using 5''-[gamma-33P]-triphosphate.
Chain of Mitogen-activated protein kinase 3 (Homo sapiens) (P27361 whole entry): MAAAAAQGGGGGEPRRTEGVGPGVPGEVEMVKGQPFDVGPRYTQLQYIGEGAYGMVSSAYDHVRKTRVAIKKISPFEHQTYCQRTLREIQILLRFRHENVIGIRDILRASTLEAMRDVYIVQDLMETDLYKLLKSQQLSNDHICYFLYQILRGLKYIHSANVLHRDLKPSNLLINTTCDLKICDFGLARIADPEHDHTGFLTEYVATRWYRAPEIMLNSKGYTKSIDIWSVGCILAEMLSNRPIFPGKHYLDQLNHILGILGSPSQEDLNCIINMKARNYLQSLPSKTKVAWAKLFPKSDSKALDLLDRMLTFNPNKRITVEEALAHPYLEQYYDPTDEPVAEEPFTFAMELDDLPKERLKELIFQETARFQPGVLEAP
In data set [11] the target is RAC-alpha serine/threonine-protein kinase (Homo sapiens) (UniProt P31749). Description: In vitro percent inhibition of Protein kinase B, alpha at 10 uM concentration of compound dissolved in 100% DMSO using 5''-[gamma-33P]-triphosphate.
Chain of RAC-alpha serine/threonine-protein kinase (Homo sapiens) (P31749 whole entry): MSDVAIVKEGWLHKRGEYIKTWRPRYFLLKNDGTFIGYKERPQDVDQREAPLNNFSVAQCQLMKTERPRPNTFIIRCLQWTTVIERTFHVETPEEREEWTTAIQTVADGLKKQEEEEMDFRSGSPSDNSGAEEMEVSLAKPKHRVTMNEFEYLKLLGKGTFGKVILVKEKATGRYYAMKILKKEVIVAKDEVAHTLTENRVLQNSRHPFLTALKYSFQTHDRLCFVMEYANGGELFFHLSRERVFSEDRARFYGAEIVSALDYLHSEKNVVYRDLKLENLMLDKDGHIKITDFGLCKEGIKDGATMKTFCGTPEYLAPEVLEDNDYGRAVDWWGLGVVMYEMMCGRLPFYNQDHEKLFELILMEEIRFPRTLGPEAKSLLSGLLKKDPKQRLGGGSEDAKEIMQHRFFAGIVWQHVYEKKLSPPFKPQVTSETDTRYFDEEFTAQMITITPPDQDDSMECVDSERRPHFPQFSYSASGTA
Data set [12] concerns the target Tyrosine-protein kinase Lck (Homo sapiens) (UniProt P06239). Kind of data set: In vitro percent inhibition of p56 Lck tyrosine kinase at 10 uM concentration of compound dissolved in 100% DMSO using 5''-[gamma-33P]-triphosphate.
Data set [13] concerns the target Rho-associated protein kinase 2 (Homo sapiens) (UniProt O75116). Description: In vitro percent inhibition of Protein kinase ROCK2 at 10 uM concentration of compound dissolved in 100% DMSO using 5''-[gamma-33P]-triphosphate.
Data set [14] concerns the target Casein kinase I isoform alpha (Homo sapiens) (UniProt P48729). Kind of data set: In vitro percent inhibition of Casein kinase 1 alpha at 10 uM concentration of compound dissolved in 100% DMSO using 5''-[gamma-33P]-triphosphate.
In data set [15] the target is T1, Inhibitor of nuclear factor kappa-B kinase subunit beta (Homo sapiens) (UniProt O14920).
T1 sequence (whole entry): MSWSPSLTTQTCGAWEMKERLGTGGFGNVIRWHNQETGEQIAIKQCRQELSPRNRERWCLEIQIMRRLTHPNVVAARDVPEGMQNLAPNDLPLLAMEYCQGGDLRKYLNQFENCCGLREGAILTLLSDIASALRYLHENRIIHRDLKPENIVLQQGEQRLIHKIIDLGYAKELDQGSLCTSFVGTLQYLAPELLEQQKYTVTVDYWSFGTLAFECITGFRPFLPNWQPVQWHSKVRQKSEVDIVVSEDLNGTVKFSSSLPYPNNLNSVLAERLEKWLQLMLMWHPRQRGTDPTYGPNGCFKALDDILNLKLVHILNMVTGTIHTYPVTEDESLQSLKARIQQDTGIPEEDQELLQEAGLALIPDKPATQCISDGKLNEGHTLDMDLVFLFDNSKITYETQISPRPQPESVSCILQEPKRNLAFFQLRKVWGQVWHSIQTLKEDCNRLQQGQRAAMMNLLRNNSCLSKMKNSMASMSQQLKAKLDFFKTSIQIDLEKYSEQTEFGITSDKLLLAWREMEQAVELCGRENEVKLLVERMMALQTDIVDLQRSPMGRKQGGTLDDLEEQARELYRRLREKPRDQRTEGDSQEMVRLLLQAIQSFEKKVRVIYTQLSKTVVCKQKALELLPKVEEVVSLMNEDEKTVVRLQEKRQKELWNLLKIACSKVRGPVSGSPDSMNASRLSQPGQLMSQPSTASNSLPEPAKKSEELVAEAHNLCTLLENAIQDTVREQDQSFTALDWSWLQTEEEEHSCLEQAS
Description: In vitro percent inhibition of I-kappa-B-kinase beta at 10 uM concentration of compound dissolved in 100% DMSO using 5''-[gamma-33P]-triphosphate.

Data set [16] is described as follows: In vitro percent inhibition of Ribosomal S6 kinase 1 at 10 uM concentration of compound dissolved in 100% DMSO using 5''-[gamma-33P]-triphosphate.
The target in data set [17] is Proto-oncogene tyrosine-protein kinase Src (Homo sapiens) (UniProt P12931). Description: In vitro percent inhibition of c-Src tyrosine kinase at 10 uM concentration of compound dissolved in 100% DMSO using 5''-[gamma-33P]-triphosphate.
Data set [18] concerns the target T2, Tyrosine-protein kinase transforming protein Abl (Abelson murine leukemia virus) (UniProt P00521).
T2 sequence (whole entry): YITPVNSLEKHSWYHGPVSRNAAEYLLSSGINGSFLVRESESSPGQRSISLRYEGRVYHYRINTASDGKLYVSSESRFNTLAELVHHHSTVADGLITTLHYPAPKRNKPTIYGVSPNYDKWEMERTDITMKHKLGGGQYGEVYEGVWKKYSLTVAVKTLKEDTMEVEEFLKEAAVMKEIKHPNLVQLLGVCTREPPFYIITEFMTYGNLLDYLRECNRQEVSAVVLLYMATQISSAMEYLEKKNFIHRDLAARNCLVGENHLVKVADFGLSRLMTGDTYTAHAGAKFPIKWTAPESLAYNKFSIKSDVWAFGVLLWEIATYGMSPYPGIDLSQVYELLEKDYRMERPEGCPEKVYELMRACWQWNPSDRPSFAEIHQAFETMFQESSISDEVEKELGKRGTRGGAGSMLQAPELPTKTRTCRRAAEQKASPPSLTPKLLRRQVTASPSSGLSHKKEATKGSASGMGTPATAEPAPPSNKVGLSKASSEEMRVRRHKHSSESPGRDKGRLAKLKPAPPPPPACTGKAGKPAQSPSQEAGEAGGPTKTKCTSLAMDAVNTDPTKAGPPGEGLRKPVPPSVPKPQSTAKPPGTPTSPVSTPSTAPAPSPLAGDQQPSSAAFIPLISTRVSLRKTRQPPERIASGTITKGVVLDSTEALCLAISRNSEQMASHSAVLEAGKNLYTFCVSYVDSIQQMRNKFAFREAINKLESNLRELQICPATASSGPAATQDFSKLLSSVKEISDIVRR
Description: In vitro percent inhibition of v-Abl tyrosine kinase at 10 uM concentration of compound dissolved in 100% DMSO using 5''-[gamma-33P]-triphosphate.

Data set [19] in a line: Partition coefficient (logP). Conditions: octanol/water; call rule not given here. Format: physicochemical.
The target of data set [20] is Epidermal growth factor receptor (Homo sapiens) (UniProt P00533). Conditions: 10 uM.
The test system of data set [21] is SRPK1 (Homo sapiens). Kind of data set: In vitro inhibition of SR protein kinase 1 by compound dissolved in 100% DMSO using 5''-[gamma-33P]-triphosphate; n.a. - not active.

Chain of Mitogen-activated protein kinase 8 (Homo sapiens) (P45983 whole entry): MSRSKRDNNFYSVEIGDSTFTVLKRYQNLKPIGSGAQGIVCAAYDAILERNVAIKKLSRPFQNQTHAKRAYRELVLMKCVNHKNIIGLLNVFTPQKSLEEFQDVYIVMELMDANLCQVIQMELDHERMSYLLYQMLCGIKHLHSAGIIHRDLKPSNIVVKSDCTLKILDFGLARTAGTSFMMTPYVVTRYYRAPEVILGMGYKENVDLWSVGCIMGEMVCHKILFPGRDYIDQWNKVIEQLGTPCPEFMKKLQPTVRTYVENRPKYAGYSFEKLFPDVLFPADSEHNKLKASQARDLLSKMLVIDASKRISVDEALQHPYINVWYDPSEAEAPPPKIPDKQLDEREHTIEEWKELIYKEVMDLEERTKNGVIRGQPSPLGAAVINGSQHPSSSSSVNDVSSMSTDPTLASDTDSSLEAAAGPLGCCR
Chain of Rho-associated protein kinase 2 (Homo sapiens) (O75116 whole entry, looked up, canonical isoform): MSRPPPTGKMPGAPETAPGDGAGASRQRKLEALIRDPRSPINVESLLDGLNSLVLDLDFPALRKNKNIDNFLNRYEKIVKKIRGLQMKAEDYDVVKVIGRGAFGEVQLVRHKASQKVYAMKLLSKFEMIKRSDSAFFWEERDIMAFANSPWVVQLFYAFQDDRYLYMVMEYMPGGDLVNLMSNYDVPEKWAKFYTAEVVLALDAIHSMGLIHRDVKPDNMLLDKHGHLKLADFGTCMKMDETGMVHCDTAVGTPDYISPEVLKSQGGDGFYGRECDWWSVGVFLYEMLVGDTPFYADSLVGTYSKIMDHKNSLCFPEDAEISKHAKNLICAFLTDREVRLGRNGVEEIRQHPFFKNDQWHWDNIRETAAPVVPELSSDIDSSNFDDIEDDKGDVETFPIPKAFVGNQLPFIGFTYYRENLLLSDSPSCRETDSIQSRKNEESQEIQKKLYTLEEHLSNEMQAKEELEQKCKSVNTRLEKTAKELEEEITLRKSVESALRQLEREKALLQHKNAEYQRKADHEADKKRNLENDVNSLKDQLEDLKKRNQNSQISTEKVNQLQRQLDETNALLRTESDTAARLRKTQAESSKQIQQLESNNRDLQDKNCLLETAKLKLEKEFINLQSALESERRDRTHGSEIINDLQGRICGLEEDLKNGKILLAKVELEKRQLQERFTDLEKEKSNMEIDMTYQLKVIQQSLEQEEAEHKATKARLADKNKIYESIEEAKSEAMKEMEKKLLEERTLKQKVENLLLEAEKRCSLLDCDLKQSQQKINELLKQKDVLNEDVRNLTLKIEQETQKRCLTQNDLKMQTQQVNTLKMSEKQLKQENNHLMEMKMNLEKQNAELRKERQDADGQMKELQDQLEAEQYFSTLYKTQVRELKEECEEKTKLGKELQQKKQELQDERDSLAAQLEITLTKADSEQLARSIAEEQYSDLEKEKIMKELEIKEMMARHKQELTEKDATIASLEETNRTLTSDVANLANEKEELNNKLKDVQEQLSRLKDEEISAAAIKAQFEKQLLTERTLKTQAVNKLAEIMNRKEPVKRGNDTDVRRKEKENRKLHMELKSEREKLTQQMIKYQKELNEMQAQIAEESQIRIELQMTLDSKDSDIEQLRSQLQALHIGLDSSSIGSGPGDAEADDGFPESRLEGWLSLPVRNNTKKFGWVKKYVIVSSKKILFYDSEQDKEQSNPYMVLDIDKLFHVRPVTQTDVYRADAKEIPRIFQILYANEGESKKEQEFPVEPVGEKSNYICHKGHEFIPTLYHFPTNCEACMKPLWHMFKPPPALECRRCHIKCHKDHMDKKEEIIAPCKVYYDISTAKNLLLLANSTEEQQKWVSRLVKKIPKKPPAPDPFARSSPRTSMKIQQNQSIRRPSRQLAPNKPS
Chain of RAF proto-oncogene serine/threonine-protein kinase (Homo sapiens) (P04049 whole entry): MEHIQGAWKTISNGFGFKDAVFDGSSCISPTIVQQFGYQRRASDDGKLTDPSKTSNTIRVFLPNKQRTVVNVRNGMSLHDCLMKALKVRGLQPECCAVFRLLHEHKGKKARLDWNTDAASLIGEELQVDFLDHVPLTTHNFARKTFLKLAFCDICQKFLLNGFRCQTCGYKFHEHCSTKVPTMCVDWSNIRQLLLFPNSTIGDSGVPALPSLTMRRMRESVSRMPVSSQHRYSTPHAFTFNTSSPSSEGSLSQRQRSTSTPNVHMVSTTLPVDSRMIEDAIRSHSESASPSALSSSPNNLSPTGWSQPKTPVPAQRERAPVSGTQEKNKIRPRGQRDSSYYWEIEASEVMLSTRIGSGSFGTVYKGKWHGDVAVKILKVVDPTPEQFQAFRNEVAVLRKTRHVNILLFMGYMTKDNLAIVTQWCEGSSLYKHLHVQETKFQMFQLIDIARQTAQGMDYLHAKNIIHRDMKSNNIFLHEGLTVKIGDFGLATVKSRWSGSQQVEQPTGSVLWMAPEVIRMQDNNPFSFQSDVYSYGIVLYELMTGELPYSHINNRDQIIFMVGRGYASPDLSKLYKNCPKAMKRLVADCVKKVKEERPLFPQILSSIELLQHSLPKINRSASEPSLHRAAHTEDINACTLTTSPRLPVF
Chain of Casein kinase I isoform alpha (Homo sapiens) (P48729 2-337 limits assumed): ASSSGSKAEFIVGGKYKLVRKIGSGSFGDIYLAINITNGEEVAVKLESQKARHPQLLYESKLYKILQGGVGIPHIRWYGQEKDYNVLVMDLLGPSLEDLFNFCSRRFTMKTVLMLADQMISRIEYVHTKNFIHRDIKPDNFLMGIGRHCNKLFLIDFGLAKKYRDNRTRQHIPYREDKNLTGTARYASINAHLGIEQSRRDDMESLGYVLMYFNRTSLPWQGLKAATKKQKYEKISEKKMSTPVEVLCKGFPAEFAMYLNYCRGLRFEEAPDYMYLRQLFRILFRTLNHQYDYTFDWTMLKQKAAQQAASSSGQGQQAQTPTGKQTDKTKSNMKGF

`O=C(O)CCc1ccc(-c2nc3cc4ccccc4cc3nc2-c2ccc(CCC(=O)O)s2)s1`: the inhibition in data set [1] was -5%; in [2] it was -4%; in data set [3] it was 29%; in data set [4], 23%; in data set [5], 18%; in data set [6], 49%. Also, the inhibition in data set [7] was 52%; in data set [8], -5%; in data set [9], 32%; in data set [10], 11%; in [11], 0%; in data set [12] it was -3%. Also, the inhibition in [13] was found to be 18%; in data set [14], 40%; in data set [15] it was 54%; in [16], 30%; in data set [17] it was 70%; in [18] it was 3%. In data set [20], the inhibition is 40%. In data set [19], the logP came to 4.28.
In the case of `O=C(O)Cc1ccc(-c2nc3cc4ccccc4cc3nc2-c2ccc(CC(=O)O)s2)s1`, the inhibition is -3% in data set [1]; 8% in [2]; 17% in [3]; 47% in [4]; 39% in [5]; 10% in data set [6]. The inhibition in data set [7] is 15%; in data set [8], 5%; in data set [9], 27%; in [10] it was 52%; in [11], 15%; in [12] it was -9%. The inhibition in data set [13] is 5%; in [14], -2%; in data set [15] it was 25%; in [16] it was 23%; in data set [17], 14%; in data set [18], 10%. In addition, the inhibition in data set [20] was found to be 52%. This compound also had a logP in data set [19] of 3.3.
Consider `c1csc(-c2nc3cc4c(cc3nc2-c2cccs2)OCO4)c1`, for which the inhibition in [1] is 18%; in data set [2], -4%; in data set [3], 6%; in data set [4] it was -1%; in data set [5] it was 21%; in data set [6] it was 54%. The inhibition in data set [7] is 38%; in data set [8] it was 29%; in [9], 34%; in data set [10], 14%; in data set [11], -6%; in [12], 41%. In addition, the inhibition in data set [13] stood at 31%; in data set [14], 9%; in data set [15], 28%; in data set [16] it was 1%; in data set [17] it was 71%; in data set [18], 14%. In data set [20], the inhibition came out at 35%. For the same compound, in data set [19], the logP came out at 4.8.
Consider `COC(=O)CCCc1ccc(-c2nc3cc4ccccc4cc3nc2-c2ccc(CCCC(=O)OC)s2)s1`, for which the inhibition in [1] is 9%; in data set [2] it was 25%; in data set [3], -7%; in [4], 24%; in data set [5], 42%; in data set [6], 47%. Besides, the inhibition in [7] is 5%; in data set [9] it was 12%; in data set [10], 8%; in data set [11], -6%; in data set [12], 2%; in data set [13], 5%. Also, the inhibition came out at 30% in data set [14]; 16% in [15]; 38% in data set [16]; 15% in data set [18]; 8% in data set [20]. The compound further registered a logP in data set [19] of 5.5. In addition, the IC50 entry in [21] is listed as “Not Active”.
Turning to `c1csc(-c2nc3cc4c(cc3nc2-c2cccs2)OCCCO4)c1`, the inhibition was 15% in data set [1]; -7% in data set [2]; 2% in data set [3]; -5% in data set [5]; 24% in data set [6]; 22% in data set [7]. The inhibition in data set [8] is 34%; in data set [9] it was 27%; in data set [10], 21%; in data set [12], 39%; in [13], 32%; in data set [14] it was -5%. Moreover, the inhibition in [15] was 22%; in data set [16] it was 17%; in data set [17], 75%; in data set [18], 10%; in [20], 26%. The same compound returned a logP in data set [19] of 5. The IC50 result in data set [21] is given as “Not Active”.
As for `Oc1cc2nc(-c3cccs3)c(-c3cccs3)nc2cc1O`, the inhibition in [1] is -3%; in [2] it was 7%; in [3], -8%; in [4] it was 5%; in [5], 3%; in data set [7], -7%. Besides, the inhibition in data set [8] was -4%; in data set [9], 0%; in data set [10], 25%; in [11] it was -7%; in data set [12] it was 1%; in data set [14], 9%. Also, the inhibition is 3% in [15]; 6% in [16]; -3% in data set [17]; 1% in data set [18]; 25% in data set [20]. In data set [19], the lipophilicity (logP) amounted to 4.2.
